Laboratory results from US11376257B2, “Generation of muscle lineage cells and therapeutic uses thereof” (GENEA BIOCELLS USA (HOLDINGS), INC., priority 2016, dated 2022).
Entries after “also recorded” stand apart in the source; their conditions may differ. Where two headings read alike, the source gives them in different places.

What was measured:
[1] = test system: myoblasts from non-affected and genetic disease-affected hESC cell lines; assay: Myotube formation in disease-affected and non-affected hESC-derived myoblasts with or without CHIR-124; assay type: cell-based, human; conditions: 0.5 μM CHIR-124, three days in Myotube Medium, all cell lines (unaffected, Huntington's, DM1, DM2, SMA, FSH, DMD)
Procedure: Myoblasts prepared via the method of Example 4 from two non-affected hESC cell lines (Genea002 and Genes019) and six verified genetic disease-affected cell lines (Genea020, Genea066, Gen103, Gen158, Gen049 and Gen159, described in Table 6 below) were thawed in Genea Biocells Myoblast Medium in 96-well microtiter plates at 3.0×10^4 cells/cm2 and incubated at 10% CO2, 37° C. Genea020 was derived from an embryo affected with Huntington's disease (48CAG repeat expansion in the Huntingtin gene). Genea066 was derived from an embryo affected with Myotonic Dystrophy type II. Genea103 was derived from an embryo affected with Spinal Muscular Atrophy. Genea158 was derived from an embryo affected with Myotonic Dystrophy type I. Genea049 was derived from an embryo affected with FSH Muscular Dystrophy. Genea159 was derived from an embryo affected with Duchenne muscular dystrophy. All hESC cell lines were derived according to approved ethical protocols from donated embryos. Once cells (myoblasts) were confluent (approximately on day 3) media was changed for Genea Biocells Myotube Medium, either alone or with 0.5 μM CHIR-124 (CHIR). […] Images were analyzed with IN Cell Developer Toolbox software (GE Healthcare). […] The ratio between area of MHC and nuclei (um2) was calculated by measuring the area per field divided by the number of nuclei within that field.

[2] = test system: Duchenne Muscular Dystrophy (DMD); assay: Treatment of a Duchenne Muscular Dystrophy patient with a checkpoint inhibitor; assay type: in vivo, human; conditions: child with DMD
Procedure: A child diagnosed with Duchenne Muscular Dystrophy (DMD) is seen in a clinic for weakness in their calves and thighs.
A child diagnosed with Duchenne Muscular Dystrophy (DMD) is seen in a clinic for weakness in their calves and thighs. To treat the muscle weakness, the patient is administered 100 mg once daily of CHIR-124 or 50-75 mg twice daily of CHIR-124 for two months. At the initial appointment, skin fibroblasts are obtained from the patient. The fibroblasts are subsequently used to produce induced pluripotent stem cells (iPSCs), which are then genetically modified to remove a mutation associated with DMD. The iPSCs are then differentiated into satellite cells in vitro; and the satellite cells, in turn, are differentiated into myoblasts in vitro. The differentiated myoblasts are then administered in […] doses to the patient's thighs and calves once a week during the two month period.

[3] = test system: stem cell-derived myoblasts; conditions: for production of myotubes with mature features (summary of FIGS. 10-18): different doses in Myotube Medium; for production of myotubes with mature features (summary of FIGS. 10-18) / myotube morphology (visual) versus control cultures: 5 days
Procedure: For screening, frozen satellite-like cells, prepared as described in Example 1, were thawed in a water bath at 37° C., resuspended in 3 mL of warm Myoblast Medium (Genea Biocells) and centrifuged at 400×g for 4 min. The supernatant was removed and the cell pellet was resuspended in 1 mL of medium for cell count. Cells were seeded at a density of 5,000 cells/cm^2 in collagen I-coated plastic flasks (Biocoat, BD Bioscience) and incubated at 5% CO2, 37° C. Every other day the culture medium was exchanged until cells reached a confluency of 80%, then cells were trypsinized, counted and seeded in collagen-coated 96-well plate (Biocoat) at density of 30,000 cells/cm^2 in Myoblast Medium using an automated liquid handling system (Fluent, Tecan Trading AG, Switzerland). Cells were incubated at 5% CO2, 37° C. and the medium was changed every other day until cells reached a confluence of 80%. The medium was exchanged for Myotube Medium (Genea Biocells) containing the test compounds. No further media changes were performed. In general, 3 to 6 concentrations were tested ranging from 3 μM to 1 nM; one plate per dilution was used. Media and DMSO control wells were placed randomly. No media changes were performed at this stage. After five days of myotube differentiation in the presence of compounds, cells were fixed with 10% formalin (Sigma) for 15 minutes at room temperature and washed once with phosphate-buffered saline (PBS). Next, cells were stained with an antibody specific for myosin heavy chain (Developmental Studies of Hybridoma Bank, University of Iowa, Iowa City; anti mouse A4.1519; dilution 1:1000) in PBS solution containing 5% bovine serum albumin (BSA, Sigma) and 0.3% Triton-X (Sigma) and incubated for 1 hour at room temperature. The cells were washed once with PBS and then incubated for 1 hour with a second antibody, Alexa Fluor 488-conjugated goat anti-mouse IgG (Invitrogen, 1:1000), and counterstained for nuclei with Hoechst 33342 (Molecular probes 1:5000) in a PBS solution containing 5% BSA and 0.3% Triton-X. Cells were washed with PBS prior microscopic analysis. Cells were imaged using an IN Cell Analyzer 6000 (GE-Healthcare) high content analysis system. Developer Toolbox v1.9.3 was utilized for image analysis to determine the number of nuclei, and the number of nuclei within MHC-positive myotubes. To evaluate the effect of compounds in either decrease or increase these measures untreated controls were set as the baseline.
Myoblasts were prepared or frozen myoblasts were thawed as described in Example 4. Once cultures reached confluency the medium was changed to Myotube Medium supplemented with 0.2, 0.5 or 1 μM CHIR-124 (Chk1 inhibitor). The cultures were left in an incubator at 37° C. and 5% CO2 for 5 days. […] Cells were fixed with 10% formalin (Sigma) for 15 minutes at room temperature and washed once with phosphate-buffered saline (PBS). Next, cells were stained for with antibodies specific for myosin heavy chain (Developmental Studies of Hybridoma Bank, University of Iowa, Iowa City; anti mouse A4.1519; dilution 1:1000) and MyoG (Santa Cruz, anti-rabbit; dilution 1:500) in PBS solution containing 5% bovine serum albumin (BSA, Sigma) and 0.3% Triton-X (Sigma) and incubated for 1 hour at room temperature. The cells were washed once with PBS and then incubated for 1 hour with a second antibody, Alexa Fluor 488-conjugated goat anti-mouse IgG and Alexa Fluor 647-conjugated anti-rabbit (both Invitrogen, 1:1000), and counterstained for nuclei with Hoechst 33342 (Molecular probes 1:5000) in a PBS solution containing 5% BSA and 0.3% Triton-X. Cells were washed with PBS prior to microscopic analysis. Cells were imaged using an IN Cell Analyzer 6000 (GE-Healthcare) high content analysis system.

[4] = test system: myosin heavy chains (MHC) in Genea015 myoblast-derived myotubes; assay: Western blot analysis of myosin heavy chain types in myotubes; assay type: cell-based, human
Procedure: Genea015 (a disease-unaffected hESC cell line) myoblasts prepared by the method of Example 4 were thawed and seeded at 30,000 cells/cm^2 in Genea Biocells Myoblast Medium and incubated at 37° C., 5% CO2 until confluent (approximately 2 days). Then media was changed for Genea Biocells Myotube Medium either alone or with […] CHIR-124. Cell lysates for protein analysis were collected 5 days after treatment with CHIR-124 and quantified by BCA assay (ThermoFisher). Western blotting (Wes, Protein Simple) was performed to analyze the expression of myosin heavy chains (MHC) that are expressed during development and maturation of myotubes (total MHC, or total myosin heavy chain; eMHC, or embryonic myosin heavy chain; fMHC, or foetal myosin heavy chain; pMHC, or perinatal myosin heavy chain; and fast MHC, or fast myosin heavy chain, the most mature MHC found in myotubes). MHC expression was normalized to Vinculin for quantification.

[5] = 0.5 μM CHIR-124, 5 days, Genea015

O=c1[nH]c2ccc(Cl)cc2c(NC2CN3CCC2CC3)c1-c1nc2ccccc2[nH]1 (centres unmarked) [CHIR-124]
myotube formation as MHC staining area normalized to cell number (nuclei) [1]: improved myotube formation; also recorded: improvements in differentiation
myotube formation as MHC staining area normalized to cell number (nuclei) ([1]; listed as CHIR124): higher
symptoms of muscle weakness ([2]; 100 mg once daily or 50-75 mg twice daily for two months): symptoms of muscle weakness improve
muscle tone ([2]; CHIR-124 for two months combined with genetically modified iPSC-derived myoblasts once a week): improved muscle tone
myotube morphology (visual) ([3]; 0.2 μM, 0.5 μM, or 1 μM CHIR-124, 5 days): formed thick, large myotubes
number of myotubes observed ([3]; 1 μM CHIR-124, 5 days): overall fewer myotubes were observed
larger average myotube diameter compared to myotubes formed in the absence of CHIR-124 ([3]; 0.2 or 0.5 μM CHIR-124, 5 days): > 80%
average number of nuclei per myotube ([3]; 0.2 or 0.5 μM CHIR-124, 5 days, 2 without CHIR-124): about 4
mean area of myotubes (FIG. 10D, lower panel) ([3]; CHIR-124, 5 days): Increases
myotube area (FIG. 10C, lower panel) ([3]; CHIR-124, 5 days): Increases
number of cells with larger myotube area (FIG. 10D, upper panel) ([3]; CHIR-124, 5 days): Increases
number of cells with more than one nucleus (FIG. 10B, lower panel) ([3]; CHIR-124, 5 days): Increases
production of myotubes with mature features (summary of FIGS. 10-18) [3]: produce myotubes with mature features
nuclei contained in many myotubes ([3]; exposed to CHIR-124, untreated controls few cells exceeding 10-12 nuclei): more than 30
expression of fast MHC (fast myosin heavy chain) [4, 5]: increases in expression
expression of total MHC normalized to Vinculin [4, 5]: increases expression
expression of pMHC (perinatal myosin heavy chain) ([4]; 0.5 M CHIR-124, 5 days, Genea015): increases in expression
expression of the most mature forms of MHC (FIG. 20) ([4]; in the presence of CHIR-124): increased expression

CC(C)c1noc(N2CCC(COc3ccc(-c4ccc(S(C)(=O)=O)cc4)nc3)CC2)n1 [GSK1292263]
myotube morphology (visual) versus control cultures ([3]; 0.1, 0.3 or 1 M): formed longer and thicker myotubes than control cultures
production of myotubes with mature features (summary of FIGS. 10-18) [3]: produce myotubes with mature features

Cn1cnc2c(F)c(Nc3ccc(Br)cc3F)c(C(=O)NOCCO)cc21 [MEK162, binimetinib]
myotube morphology (visual) versus control cultures ([3]; 0.1, 0.3 or 1 μM): formed more and longer and thicker myotubes than control cultures
production of myotubes with mature features (summary of FIGS. 10-18) [3]: produce myotubes with mature features

COc1ccncc1C(=O)NC(=O)Nc1ccc(-c2ccccc2)c(C(F)(F)F)c1 [TC-G 1006]
myotube morphology (visual) versus control cultures ([3]; 0.1, 0.3 or 1 M): formed longer and thicker myotubes than control cultures
production of myotubes with mature features (summary of FIGS. 10-18) [3]: produce myotubes with mature features

CN1[C@@H]2CC[C@H]1C[C@@H](OC(=O)C(CO)c1ccccc1)C2 (some centres unmarked) [atropine]
myotube morphology (visual) versus control cultures ([3]; 0.2, 0.5 or 1 μM atropine): formed longer and thicker myotubes than control cultures
number of myotubes observed ([3]; cultures incubated with atropine): overall fewer myotubes were observed
production of myotubes with mature features (summary of FIGS. 10-18) [3]: produce myotubes with mature features

CC[C@@H]1C(=O)OC[C@@H]1Cc1cncn1C [pilocarpine]
myotube morphology (visual) versus control cultures ([3]; 0.1, 03 or 1 μM pilocarpine): formed longer and thicker myotubes than control cultures
production of myotubes with mature features (summary of FIGS. 10-18) [3]: produce myotubes with mature features

CO[C@H]1C[C@@H]2CC[C@@H](C)[C@@](O)(O2)C(=O)C(=O)N2CCCC[C@H]2C(=O)O[C@H]([C@H](C)C[C@@H]2CC[C@@H](O)[C@H](OC)C2)CC(=O)[C@H](C)/C=C(\C)[C@@H](O)[C@@H](OC)C(=O)[C@H](C)C[C@H](C)/C=C/C=C/C=C/1C [rapamycin]
myotube morphology (visual) versus control cultures ([3]; 0.1, 0.3 or 1 μM): formed more and longer and thicker myotubes than control cultures
production of myotubes with mature features (summary of FIGS. 10-18) [3]: produce myotubes with mature features

CNC(=O)c1cc(Oc2ccc(NC(=O)Nc3ccc(Cl)c(C(F)(F)F)c3)cc2)ccn1 [sorafenib]
myotube morphology (visual) versus control cultures ([3]; 0.1, 0.3 or 1 μM): formed more and longer and thicker myotubes than control cultures
production of myotubes with mature features (summary of FIGS. 10-18) [3]: produce myotubes with mature features

talazoparib
myotube morphology (visual) versus control cultures ([3]; 0.1, 0.3 or 1 μM Talazoparib): formed more and longer myotubes than control cultures
production of myotubes with mature features (summary of FIGS. 10-18) [3]: produce myotubes with mature features
